According to patent US10487045B2, “Adamantane derivative and use thereof” (TOHOKU UNIVERSITY, priority 2016, dated 2019):

Target: T1, Kir6.2 channel (Mus musculus, UniProt Q61743)
T1 construct: expressed in transfected cells; host or cells: Neuro2A (N2A) cells, transient transfection with pcDNA3.1-Kir6.2 (gift of Dr. Toru Ishizuka, Tohoku University)
T1 sequence (Q61743 1-390): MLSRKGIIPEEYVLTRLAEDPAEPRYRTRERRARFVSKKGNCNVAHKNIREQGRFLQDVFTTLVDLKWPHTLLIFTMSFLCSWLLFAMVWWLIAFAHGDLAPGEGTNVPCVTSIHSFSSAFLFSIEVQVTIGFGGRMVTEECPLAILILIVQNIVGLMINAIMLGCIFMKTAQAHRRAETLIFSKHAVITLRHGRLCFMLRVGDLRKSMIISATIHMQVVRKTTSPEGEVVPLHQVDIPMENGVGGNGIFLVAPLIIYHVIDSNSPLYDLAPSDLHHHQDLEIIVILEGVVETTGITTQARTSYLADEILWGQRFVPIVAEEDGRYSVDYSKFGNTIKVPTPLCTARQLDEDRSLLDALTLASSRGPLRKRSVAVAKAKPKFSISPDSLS
Experiment: CaMKII activation in N2A cells overexpressing Kir6.2 channel (immunoblotting, anti-phosphorylated CaMKII antibody)
Format: cell-based
Details: 10 nM, one hour, Kir6.2 channel overexpressing N2A cells; control without compound = 100%
Procedure: A plasmid vector having cDNA of Kir6.2 channel inserted therein: pcDNA3.1-Kir6.2, was obtained from Dr. Toru Ishizuka (Graduate School of Life Sciences, Tohoku University). The plasmid vector, pcDNA3.1-Kir6.2, was conditioned in accordance with the manual attached to GenElute HP Plasmid Maxiprep Kit (manufactured by Sigma-Aldrich). A culture solution (composition: DMEM culture solution 450 mL containing 50 ml of bovine serum and 100 units of penicillin/streptomycin) of Neuro2A cells (N2A cells, the National Instituted of Biomedical Innovation) cultured in DMEM culture solution (Gibco) was exchanged with Opti-Mem (Gibco)(containing Lipofectamine R2000 (1 μg/1 ml)) containing pcDNA3.1-Kir6.2 (1 μg/μl) conditioned above, and cultured for 5 hours to obtain N2A cells overexpressing Kir6.2 channel. Exchange with the DMEM culture solution was again performed and culture was carried out for two days. Thereafter, memantine (manufactured by Sigma-Aldrich) and the compound of the present invention (n=4 per group) were added in the culture solutions (DMEM, Gibco) so as to obtain a concentration of 10 nM based on the culture solution, and the culture solutions were allowed to stand still for one hour. Thereafter, Kir6.2 channel overexpressing N2A cells were collected and an SDS sample buffer was added to the N2A cells to prepare a suspension. The suspension was subjected to immunoblotting by use of an anti-phosphorylated CaMKII antibody (Fukunaga K et al., J. Biol. Chem. 1992, 267, 22527-22533) as a primary antibody and an anti-rabbit IgG antibody (manufactured by SouthernBiotech) as a secondary antibody (other conditions except the aforementioned antibodies were the same as those employed in ordinary immunoblotting), to investigate activation of CaMKII. As a result, in TP-009, TP-010, TP-011, TP-012, TP-014, TP-015, TP-048, TP-049, TP-050, TP-051, TP-052, TP-053, bands showing a reaction with the antibody against phosphorylated CaMKII were obtained. It was confirmed that activation of CaMKII is enhanced. In FIG. 1, the result of the case (control: c) where a test compound was not added is regarded as 100%. CaMKII activation of the cases containing memantine, TP-009, TP-010, TP-011, TP-012, TP-014, TP-015, TP-048, TP-049, TP-050, TP-051, TP-052, TP-053 (corresponding to M, 9, 10, 11, […], 15, 48, 49, 50, 51, 52 and 53, respectively) were shown in FIG. 1.

activation of CaMKII (phosphorylated CaMKII bands) | Compound
enhanced | CC(=O)O[C@@H](c1ccccc1)[C@@H]1[C@@H]2C[C@H]3C[C@@](N=[N+]=[N-])(C2)C[C@]1(O)C3 [TP-009, (R)-((1R,2S,3R,5R,7S)-5-azido-1-hydroxyadamantan-2-yl)(phenyl)methyl acetate]
enhanced | CCOC(=O)[C@@H](NC(C)=O)[C@@H]1[C@@H]2C[C@H]3C[C@@](Cl)(C2)C[C@]1(O)C3 [TP-010, ethyl (S)-2-acetamido-2-((1R,2S,3R,5R,7R)-5-chloro-1-hydroxyadamantan-2-yl)acetate]
enhanced | CCOC(=O)[C@H](NC(C)=O)[C@@H]1[C@@H]2C[C@H]3C[C@@](Cl)(C2)C[C@]1(O)C3 [TP-011, ethyl (R)-2-acetamido-2-((1R,2S,3R,5R,7R)-5-chloro-1-hydroxyadamantan-2-yl)acetate]
enhanced | COC(=O)[C@@H](NC(=O)C(F)(F)F)[C@@H]1[C@@H]2C[C@H]3C[C@@](Cl)(C2)C[C@]1(OC(=O)C(F)(F)F)C3 [TP-012, (1R,2S,3R,5R,7R)-5-chloro-2-((S)-2-methoxy-2-oxo-1-(2,2,2-trifluoroacetamido)ethyl)adamantan-1-yl 2,2,2-trifluoroacetate]
enhanced | N[C@H](C(=O)O)[C@@H]1[C@@H]2C[C@H]3C[C@@](O)(C2)C[C@]1(O)C3 [TP-015, (S)-2-amino-2-((1R,2S,3R,5R,7S)-1,5-dihydroxyadamantan-2-yl)acetic acid]
enhanced | O=C(N[C@@H](c1ccccc1)[C@H]1[C@H]2C[C@@H]3C[C@](Cl)(C2)C[C@@]1(O)C3)C(F)(F)F [TP-048, N—((R)-((1S,2R,3S,5S,7S)-5-chloro-1-hydroxyadamantan-2-yl)(phenyl)methyl)-2,2,2-trifluoroacetamide]
enhanced | O=C(N[C@@H](c1ccccc1)[C@H]1[C@@H]2C[C@H]3C[C@@H](C2)C[C@]1(OC(=O)C(F)(F)F)C3)C(F)(F)F [TP-049, (1S,2R,3S,5R,7S)-2-((R)-phenyl(2,2,2-trifluoroacetamido)methyl)adamantan-1-yl 2,2,2-trifluoroacetate]
enhanced | COCCO[C@@]12C[C@H]3C[C@@H](C1)[C@H]([C@@H](NC(=O)C(F)(F)F)c1ccccc1)[C@](OC(=O)C(F)(F)F)(C3)C2 [TP-050, (1S,2R,3S,5S,7R)-5-(2-methoxyethoxy)-2-((R)-phenyl(2,2,2-trifluoroacetamido)methyl)adamantan-1-yl 2,2,2-trifluoroacetate]
enhanced | O=C(N[C@@H](c1cccnc1)[C@H]1[C@H]2C[C@@H]3C[C@](Cl)(C2)C[C@@]1(O)C3)C(F)(F)F [TP-051, N—((R)-((1S,2R,3S,5S,7S)-5-chloro-1-hydroxyadamantan-2-yl)(pyridin-3-yl)methyl)-2,2,2-trifluoroacetamide]
enhanced | O=C(N[C@@H](c1ccccc1)[C@H]1[C@@H]2C[C@H]3C[C@@H](C2)C[C@]1(O)C3)C(F)(F)F [TP-052, 2,2,2-trifluoro-N—((R)—((S,2R,3S,5R,7S)-1-hydroxyadamantan-2-yl)(phenyl)methyl) acetamide]
enhanced | CO[C@@]12C[C@H]3C[C@@H](C1)[C@H]([C@@H](NC(=O)C(F)(F)F)c1ccccc1)[C@](OC(=O)C(F)(F)F)(C3)C2 [TP-053, (1S,2R,3S,5S,7R)-5-methoxy-2-((R)-phenyl(2,2,2-trifluoroacetamido)methyl)adamantan-1-yl 2,2,2-trifluoroacetate]
